The source made the active and inactive calls. No cut-off for these calls is given here.
How the values were obtained:
[1] = target: T1, Inhibitor of nuclear factor kappa-B kinase subunit epsilon (Homo sapiens) (UniProt Q14164); experiment: Inhibition of IKKe Lys2 labeling site in human Huh-7 cells at 1 uM by KiNativ Profiling analysis relative to control; type: cell-based
T1 sequence (whole entry): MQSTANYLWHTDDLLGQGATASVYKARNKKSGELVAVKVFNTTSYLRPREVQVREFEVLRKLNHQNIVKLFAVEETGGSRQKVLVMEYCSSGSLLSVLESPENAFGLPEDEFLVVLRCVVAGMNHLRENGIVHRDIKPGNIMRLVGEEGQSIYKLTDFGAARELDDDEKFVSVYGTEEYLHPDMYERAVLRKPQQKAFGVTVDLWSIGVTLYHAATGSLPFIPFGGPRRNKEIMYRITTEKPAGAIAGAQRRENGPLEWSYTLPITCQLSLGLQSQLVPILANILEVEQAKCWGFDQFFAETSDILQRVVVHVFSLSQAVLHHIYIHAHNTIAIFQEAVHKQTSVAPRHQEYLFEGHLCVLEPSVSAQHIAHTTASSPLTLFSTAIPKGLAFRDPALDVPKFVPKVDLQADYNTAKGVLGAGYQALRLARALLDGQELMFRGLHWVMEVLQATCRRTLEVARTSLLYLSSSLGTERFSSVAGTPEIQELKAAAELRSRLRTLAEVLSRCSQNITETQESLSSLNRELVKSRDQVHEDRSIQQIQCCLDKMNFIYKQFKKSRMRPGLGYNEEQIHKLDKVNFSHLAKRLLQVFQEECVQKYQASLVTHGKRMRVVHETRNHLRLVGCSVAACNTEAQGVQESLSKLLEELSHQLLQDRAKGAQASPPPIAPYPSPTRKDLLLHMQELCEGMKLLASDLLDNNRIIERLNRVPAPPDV

[2] = target: Serine/threonine-protein kinase Nek6 (Homo sapiens) (UniProt Q9HC98); experiment: Inhibition of NEK6 Lys2 labeling site harbouring VMHRDIKPANVFITATGVVK in human Huh-7 cell lysate at 1 uM by KiNativ Profiling analysis relative to control; type: subcellular
[3] = target: T2, NUAK family SNF1-like kinase 1 (Homo sapiens) (UniProt O60285); experiment: Inhibition of NuaK1 Lys2 labeling site in human Huh-7 cell lysate at 1 uM by KiNativ Profiling analysis relative to control; type: subcellular
T2 sequence (whole entry): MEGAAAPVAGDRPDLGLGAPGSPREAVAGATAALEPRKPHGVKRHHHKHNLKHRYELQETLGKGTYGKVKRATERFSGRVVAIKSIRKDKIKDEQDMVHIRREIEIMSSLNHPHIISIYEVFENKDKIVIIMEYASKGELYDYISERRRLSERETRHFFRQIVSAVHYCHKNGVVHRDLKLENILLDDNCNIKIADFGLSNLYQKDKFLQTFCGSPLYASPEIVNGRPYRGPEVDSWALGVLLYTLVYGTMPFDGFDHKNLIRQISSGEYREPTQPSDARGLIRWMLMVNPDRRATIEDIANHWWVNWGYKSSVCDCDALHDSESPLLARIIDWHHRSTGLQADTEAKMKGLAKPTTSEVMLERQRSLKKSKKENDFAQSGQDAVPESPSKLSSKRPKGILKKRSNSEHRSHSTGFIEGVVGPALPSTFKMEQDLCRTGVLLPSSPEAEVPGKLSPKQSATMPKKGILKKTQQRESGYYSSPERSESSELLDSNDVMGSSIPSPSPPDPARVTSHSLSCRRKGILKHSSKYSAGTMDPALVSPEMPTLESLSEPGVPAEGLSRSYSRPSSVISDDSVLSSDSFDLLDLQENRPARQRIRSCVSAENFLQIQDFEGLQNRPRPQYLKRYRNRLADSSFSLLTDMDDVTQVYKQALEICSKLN

[4] = target: Vascular endothelial growth factor receptor 1 (Homo sapiens) (UniProt P17948); experiment: Inhibition of FLT1 (unknown origin) at 10 uM by Ambit Kinomescan binding assay relative to control; values are per cent of control
[5] = system: Epidermal growth factor receptor (Homo sapiens), P00533 [UNDEFINED MUTATION]; experiment: Inhibition of EGFR L747-E749del/A750P mutant (unknown origin) at 10 uM by Ambit Kinomescan binding assay relative to control
[6] = target: Mitogen-activated protein kinase 8 (Homo sapiens, UniProt P45983); experiment: Inhibition of JNK1 (unknown origin) at 10 uM by Ambit Kinomescan binding assay relative to control
[7] = target: Misshapen-like kinase 1 (Homo sapiens) (UniProt Q8N4C8); experiment: Inhibition of MINK (unknown origin) at 10 uM by Ambit Kinomescan binding assay
[8] = target: T3, Mitogen-activated protein kinase 13 (Homo sapiens) (UniProt O15264); experiment: Inhibition of p38 delta (unknown origin) at 1 uM by Ambit Kinomescan binding assay relative to control
T3 sequence (whole entry): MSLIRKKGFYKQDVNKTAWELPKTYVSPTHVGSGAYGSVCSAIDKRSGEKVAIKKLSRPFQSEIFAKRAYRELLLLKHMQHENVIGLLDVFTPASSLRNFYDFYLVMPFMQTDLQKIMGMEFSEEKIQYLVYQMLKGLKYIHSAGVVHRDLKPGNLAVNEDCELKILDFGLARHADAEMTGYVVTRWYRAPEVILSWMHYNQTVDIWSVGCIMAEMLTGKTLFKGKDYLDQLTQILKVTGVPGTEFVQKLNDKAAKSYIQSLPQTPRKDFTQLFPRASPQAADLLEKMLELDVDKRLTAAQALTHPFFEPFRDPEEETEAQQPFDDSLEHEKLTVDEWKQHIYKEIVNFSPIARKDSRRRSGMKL

[9] = system: Proto-oncogene tyrosine-protein kinase receptor Ret (Homo sapiens), P07949 [V804L]; experiment: Inhibition of RET V804L mutant (unknown origin) at 1 uM by Ambit Kinomescan binding assay relative to control; values are per cent of control
Proto-oncogene tyrosine-protein kinase receptor Ret (Homo sapiens), P07949 [V804L], sequence (P07949 whole entry V804L): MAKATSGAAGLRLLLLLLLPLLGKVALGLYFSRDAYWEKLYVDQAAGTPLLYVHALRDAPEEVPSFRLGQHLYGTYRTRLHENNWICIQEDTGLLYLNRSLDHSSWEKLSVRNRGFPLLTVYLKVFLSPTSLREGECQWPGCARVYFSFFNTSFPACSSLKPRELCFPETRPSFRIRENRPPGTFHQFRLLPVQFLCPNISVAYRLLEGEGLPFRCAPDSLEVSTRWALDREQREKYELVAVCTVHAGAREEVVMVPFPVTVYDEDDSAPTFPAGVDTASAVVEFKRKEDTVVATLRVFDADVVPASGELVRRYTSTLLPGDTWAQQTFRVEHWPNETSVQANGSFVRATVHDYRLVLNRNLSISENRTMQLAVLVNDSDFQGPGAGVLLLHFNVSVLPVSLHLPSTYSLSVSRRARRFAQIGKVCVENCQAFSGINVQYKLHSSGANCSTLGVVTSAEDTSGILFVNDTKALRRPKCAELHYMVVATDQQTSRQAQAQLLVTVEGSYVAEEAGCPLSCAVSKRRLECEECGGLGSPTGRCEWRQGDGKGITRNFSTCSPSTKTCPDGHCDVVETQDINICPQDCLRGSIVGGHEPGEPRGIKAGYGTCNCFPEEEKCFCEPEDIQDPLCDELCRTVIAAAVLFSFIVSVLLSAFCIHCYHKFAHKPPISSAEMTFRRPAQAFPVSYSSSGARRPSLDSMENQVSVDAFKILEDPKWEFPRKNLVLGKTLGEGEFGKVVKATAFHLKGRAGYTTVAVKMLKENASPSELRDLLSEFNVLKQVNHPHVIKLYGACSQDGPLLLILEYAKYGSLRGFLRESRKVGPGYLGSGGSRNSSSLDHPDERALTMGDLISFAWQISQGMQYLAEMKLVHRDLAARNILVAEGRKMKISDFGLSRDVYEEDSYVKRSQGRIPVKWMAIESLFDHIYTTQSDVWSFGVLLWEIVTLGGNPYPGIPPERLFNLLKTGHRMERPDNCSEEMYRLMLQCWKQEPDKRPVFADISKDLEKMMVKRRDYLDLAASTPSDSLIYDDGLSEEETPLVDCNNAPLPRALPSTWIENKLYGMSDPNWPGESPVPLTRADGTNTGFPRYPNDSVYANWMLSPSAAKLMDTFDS

Mitogen-activated protein kinase 8, sequence (P45983 whole entry): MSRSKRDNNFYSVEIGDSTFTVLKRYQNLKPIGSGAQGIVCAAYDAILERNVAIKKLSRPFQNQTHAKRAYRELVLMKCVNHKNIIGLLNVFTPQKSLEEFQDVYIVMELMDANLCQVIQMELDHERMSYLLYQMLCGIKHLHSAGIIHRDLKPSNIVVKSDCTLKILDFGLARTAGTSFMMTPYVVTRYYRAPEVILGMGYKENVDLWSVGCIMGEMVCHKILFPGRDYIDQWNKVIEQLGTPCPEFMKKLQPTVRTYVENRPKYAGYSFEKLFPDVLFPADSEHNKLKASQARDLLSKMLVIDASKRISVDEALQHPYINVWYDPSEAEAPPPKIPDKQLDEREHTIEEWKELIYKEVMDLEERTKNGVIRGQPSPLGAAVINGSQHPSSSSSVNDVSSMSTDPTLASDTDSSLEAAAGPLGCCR
Serine/threonine-protein kinase Nek6 (Homo sapiens), sequence (Q9HC98 whole entry): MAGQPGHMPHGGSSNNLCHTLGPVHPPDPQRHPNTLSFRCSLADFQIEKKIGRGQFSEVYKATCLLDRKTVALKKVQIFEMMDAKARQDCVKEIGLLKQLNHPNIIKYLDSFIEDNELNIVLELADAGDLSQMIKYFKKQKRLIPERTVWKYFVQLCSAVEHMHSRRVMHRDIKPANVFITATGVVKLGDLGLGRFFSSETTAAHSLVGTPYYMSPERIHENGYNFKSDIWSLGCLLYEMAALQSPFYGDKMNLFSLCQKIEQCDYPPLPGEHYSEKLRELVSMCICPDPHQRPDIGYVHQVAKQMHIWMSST
Epidermal growth factor receptor (Homo sapiens), P00533 [UNDEFINED MUTATION], sequence (P00533 whole entry, looked up, stated change not applied): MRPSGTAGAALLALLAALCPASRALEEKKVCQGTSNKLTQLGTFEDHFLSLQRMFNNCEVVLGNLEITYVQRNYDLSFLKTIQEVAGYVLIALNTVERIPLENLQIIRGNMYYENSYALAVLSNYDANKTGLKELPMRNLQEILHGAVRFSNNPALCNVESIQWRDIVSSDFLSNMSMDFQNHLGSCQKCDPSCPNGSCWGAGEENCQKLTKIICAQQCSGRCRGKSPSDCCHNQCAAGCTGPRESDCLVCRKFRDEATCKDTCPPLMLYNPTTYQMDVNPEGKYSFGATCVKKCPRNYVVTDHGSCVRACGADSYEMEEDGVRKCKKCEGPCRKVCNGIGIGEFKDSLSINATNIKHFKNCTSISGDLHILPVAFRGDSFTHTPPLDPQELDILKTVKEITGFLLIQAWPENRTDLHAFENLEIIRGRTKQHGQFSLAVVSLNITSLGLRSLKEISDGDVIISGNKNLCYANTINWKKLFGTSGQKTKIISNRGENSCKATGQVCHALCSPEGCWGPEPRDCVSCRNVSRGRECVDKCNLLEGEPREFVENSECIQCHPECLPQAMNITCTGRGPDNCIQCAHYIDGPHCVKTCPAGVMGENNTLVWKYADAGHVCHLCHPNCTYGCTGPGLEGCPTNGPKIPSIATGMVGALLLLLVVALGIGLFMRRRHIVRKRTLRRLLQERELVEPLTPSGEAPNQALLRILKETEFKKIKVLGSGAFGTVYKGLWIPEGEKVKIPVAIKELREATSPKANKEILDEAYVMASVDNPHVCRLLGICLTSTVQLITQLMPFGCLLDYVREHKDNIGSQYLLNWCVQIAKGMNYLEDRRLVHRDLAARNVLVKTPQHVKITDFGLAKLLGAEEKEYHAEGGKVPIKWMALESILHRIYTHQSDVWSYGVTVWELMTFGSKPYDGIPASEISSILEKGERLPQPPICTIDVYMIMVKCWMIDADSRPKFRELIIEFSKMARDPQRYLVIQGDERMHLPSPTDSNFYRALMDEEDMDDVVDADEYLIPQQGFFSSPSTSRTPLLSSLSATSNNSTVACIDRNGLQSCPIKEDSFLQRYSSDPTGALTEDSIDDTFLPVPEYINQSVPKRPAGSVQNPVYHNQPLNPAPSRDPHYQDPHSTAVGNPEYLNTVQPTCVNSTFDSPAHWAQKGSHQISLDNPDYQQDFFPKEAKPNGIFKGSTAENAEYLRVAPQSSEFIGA
Misshapen-like kinase 1 (Homo sapiens), sequence (Q8N4C8 whole entry, looked up): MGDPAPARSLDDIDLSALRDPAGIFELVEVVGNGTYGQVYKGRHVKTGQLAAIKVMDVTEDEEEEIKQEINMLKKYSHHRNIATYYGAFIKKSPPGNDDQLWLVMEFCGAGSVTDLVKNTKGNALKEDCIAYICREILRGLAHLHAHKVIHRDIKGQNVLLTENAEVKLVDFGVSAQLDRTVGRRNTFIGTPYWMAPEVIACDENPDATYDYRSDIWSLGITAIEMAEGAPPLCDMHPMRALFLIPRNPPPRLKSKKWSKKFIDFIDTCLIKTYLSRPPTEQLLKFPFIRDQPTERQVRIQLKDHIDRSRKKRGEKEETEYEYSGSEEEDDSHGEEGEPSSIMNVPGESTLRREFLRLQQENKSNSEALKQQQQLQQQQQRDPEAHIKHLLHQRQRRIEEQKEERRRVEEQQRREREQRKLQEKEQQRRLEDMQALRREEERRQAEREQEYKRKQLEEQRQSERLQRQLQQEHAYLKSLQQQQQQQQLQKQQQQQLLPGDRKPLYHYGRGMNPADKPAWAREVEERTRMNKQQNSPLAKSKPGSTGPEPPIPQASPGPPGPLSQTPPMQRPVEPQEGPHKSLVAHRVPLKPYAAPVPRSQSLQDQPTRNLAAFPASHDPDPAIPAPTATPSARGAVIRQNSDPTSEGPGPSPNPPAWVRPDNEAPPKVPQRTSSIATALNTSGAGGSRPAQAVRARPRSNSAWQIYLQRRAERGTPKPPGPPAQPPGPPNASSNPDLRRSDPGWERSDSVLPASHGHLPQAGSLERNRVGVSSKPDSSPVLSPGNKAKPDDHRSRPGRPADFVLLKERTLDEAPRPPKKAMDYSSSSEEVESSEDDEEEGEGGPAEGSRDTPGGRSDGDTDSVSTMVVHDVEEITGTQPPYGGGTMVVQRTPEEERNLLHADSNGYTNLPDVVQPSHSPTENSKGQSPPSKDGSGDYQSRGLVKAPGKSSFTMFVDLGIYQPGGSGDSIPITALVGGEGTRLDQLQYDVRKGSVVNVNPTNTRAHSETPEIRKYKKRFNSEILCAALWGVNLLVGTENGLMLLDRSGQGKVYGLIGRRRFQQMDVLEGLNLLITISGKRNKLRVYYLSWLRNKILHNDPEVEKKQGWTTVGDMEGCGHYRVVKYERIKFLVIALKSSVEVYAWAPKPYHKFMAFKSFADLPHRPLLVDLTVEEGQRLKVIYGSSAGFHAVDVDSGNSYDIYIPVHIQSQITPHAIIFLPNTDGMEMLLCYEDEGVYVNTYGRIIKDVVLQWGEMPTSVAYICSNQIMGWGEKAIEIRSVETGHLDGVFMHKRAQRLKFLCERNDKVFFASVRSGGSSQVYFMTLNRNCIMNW

Work on `CNc1cc(Oc2cc(C(=O)Nc3cc(N4CCN(C)CC4)cc(C(F)(F)F)c3)ccc2C)ncn1` yielded an inhibition [1] of 17.7%, an inhibition [2] of 19.4% and an inhibition [3] of -8.6%.

In the case of `CCN1CCN(Cc2ccc(NC(=O)c3ccc(C)c(Oc4ccnc5[nH]ccc45)c3)cc2C(F)(F)F)CC1`, the percent of control [4] is reported as 1.6%, the inhibition [5] is reported as 1.5% and the inhibition [6] is reported as 0%. The inhibition [7] was “inactive”.

`CCN1CCN(Cc2ccc(NC(=O)c3ccc(C)c(/C=C/c4cnc5[nH]ccc5c4OC)c3)cc2C(F)(F)F)CC1` was tested, and the inhibition [8] was 67% and the percent of control [9] was 3.4%.

Reference: ChEMBL document CHEMBL5696442, “Discovery of type II inhibitors of TGFβ-activated kinase 1 (TAK1) and mitogen-activated protein kinase kinase kinase kinase 2 (MAP4K2)” (J Med Chem, 2015)
